Results as given in patent publication US11905294B2, “Imidazo[1,5-a]pyrazine derivatives as PI3Kδ inhibitors” (BEIGENE, LTD., priority 2017, dated 2024).

How the values were obtained:
[1] = Pharmacokinetic properties in Sprague-Dawley rats after intravenous (IV) and oral (PO) administration; type: in vivo; details: rat; for AUC(0-inf) / clearance / half-life / Vd / Cmax / Tmax / bioavailability: male, Sprague-Dawley, plasma; for Vd: read-out: VdSS
Protocol: III. Pharmacokinetic Properties of Compounds in Sprague-Dawley Rats After Intravenous (IV) and Oral Administrations (PO)
The injection dosing solution was prepared as follows: 1.0 mg of a test compound was weighed and dissolved in 0.32 mL of dimethyl acetamide (DMA). The solution was then further diluted by 0.36 mL of ethanol and 0.32 mL of propylene glycol. The final concentration of the test compound was 1.0 mg·mL^−1.
The oral dosing solution was prepared as follows: 5.0 mg of a test compound was weighed and dispersed in […] of 0.5% methyl cellulose (MC). The final concentration of the test compound is 1 mg·mL^−1.
Male Sprague-Dawley rats (also summarized in Table 2) were housed in solid bottom polypropylene cages with sterilized bedding and receive sterilized diet and sterilized water. The room was controlled and monitored for humidity (targeted mean range 40% to 70%) and temperature (targeted mean range 18° C. to 26° C.) with 10 to 20 air changes/hour. The light cycle was maintained at 12-h light and 12-h dark. Only animals that appeared to be healthy were selected for this study based on overall health, body weight, or other relevant information.
Three rats were given a single IV dose of 1 mg·kg^−1 via tail vein injection and other three rats were given a single oral dose of 5 or 10 mg·kg^−1. The dosing solutions were freshly prepared prior to dose administration. The actual body weights and actual volume injected were recorded accordingly. Four hours after dosing, the rats were allowed to intake food.
Blood samples (˜150 μL) were collected at different times from the jugular vein catheter into EDTA-K2 coated tubes. Whole blood was processed by centrifugation at 3000 g for 10 min. Plasma samples were collected and kept at −80° C. freezer prior to analysis. The blood sampling time was recorded accordingly.
The dose samples of IV and PO were diluted with MeOH: H2O (4:1, v/v) to achieve the concentration of 2 μg·mL^−1, respectively. Then, 2.5 μL of the diluted samples were added with 47.5 μL blank plasma, and then were handled as the plasma sample procedure. An aliquot of 10 μL of the mixture was injected into the LC-MS/MS system.

PI3K (p110γ) = PI3K (p110γ) (Homo sapiens, UniProt P48736); test: PI3Kγ assay (ADP-Glo Kinase Assay); type: biochemical; details: recombinant enzyme; IC50 (nM) or max inhibition (%) at 0.5 μM
Sequence of PI3K (p110γ) (P48736 whole entry): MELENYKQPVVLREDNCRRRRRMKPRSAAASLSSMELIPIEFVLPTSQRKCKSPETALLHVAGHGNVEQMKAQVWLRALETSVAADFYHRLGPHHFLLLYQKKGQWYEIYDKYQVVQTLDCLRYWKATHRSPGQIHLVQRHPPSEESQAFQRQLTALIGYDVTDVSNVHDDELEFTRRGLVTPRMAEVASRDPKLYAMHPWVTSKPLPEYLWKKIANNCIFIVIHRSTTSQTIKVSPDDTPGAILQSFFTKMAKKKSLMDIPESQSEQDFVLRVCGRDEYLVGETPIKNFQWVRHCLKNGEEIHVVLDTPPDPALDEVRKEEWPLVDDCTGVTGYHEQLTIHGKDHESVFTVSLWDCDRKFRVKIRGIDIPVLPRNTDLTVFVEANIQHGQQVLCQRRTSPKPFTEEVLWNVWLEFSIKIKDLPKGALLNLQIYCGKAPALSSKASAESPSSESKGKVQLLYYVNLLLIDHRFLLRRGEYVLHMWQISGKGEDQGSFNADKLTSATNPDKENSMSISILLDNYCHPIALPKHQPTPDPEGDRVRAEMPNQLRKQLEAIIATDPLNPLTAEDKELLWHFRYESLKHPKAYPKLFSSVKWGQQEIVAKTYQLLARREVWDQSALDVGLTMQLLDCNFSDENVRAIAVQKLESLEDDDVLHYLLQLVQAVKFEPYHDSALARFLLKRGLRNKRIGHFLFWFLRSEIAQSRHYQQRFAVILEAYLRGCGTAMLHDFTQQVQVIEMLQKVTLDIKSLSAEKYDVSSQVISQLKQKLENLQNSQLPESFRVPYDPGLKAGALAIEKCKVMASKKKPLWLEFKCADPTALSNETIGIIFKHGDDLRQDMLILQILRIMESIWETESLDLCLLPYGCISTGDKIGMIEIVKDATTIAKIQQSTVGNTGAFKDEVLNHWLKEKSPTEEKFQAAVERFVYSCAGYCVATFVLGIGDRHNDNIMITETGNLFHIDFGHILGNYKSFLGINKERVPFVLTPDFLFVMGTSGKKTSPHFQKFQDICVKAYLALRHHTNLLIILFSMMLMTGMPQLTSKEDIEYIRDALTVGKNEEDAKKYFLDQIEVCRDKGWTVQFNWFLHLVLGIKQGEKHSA

PI3K (p110δ/p85α) = PI3K (p110δ/p85α) (Homo sapiens, UniProt O00329); test: PI3Kδ assay (ADP-Glo Kinase Assay); type: biochemical; details: recombinant enzyme; IC50 (nM) or max inhibition (%) at 0.5 μM
Sequence of PI3K (p110δ/p85α) (O00329 whole entry): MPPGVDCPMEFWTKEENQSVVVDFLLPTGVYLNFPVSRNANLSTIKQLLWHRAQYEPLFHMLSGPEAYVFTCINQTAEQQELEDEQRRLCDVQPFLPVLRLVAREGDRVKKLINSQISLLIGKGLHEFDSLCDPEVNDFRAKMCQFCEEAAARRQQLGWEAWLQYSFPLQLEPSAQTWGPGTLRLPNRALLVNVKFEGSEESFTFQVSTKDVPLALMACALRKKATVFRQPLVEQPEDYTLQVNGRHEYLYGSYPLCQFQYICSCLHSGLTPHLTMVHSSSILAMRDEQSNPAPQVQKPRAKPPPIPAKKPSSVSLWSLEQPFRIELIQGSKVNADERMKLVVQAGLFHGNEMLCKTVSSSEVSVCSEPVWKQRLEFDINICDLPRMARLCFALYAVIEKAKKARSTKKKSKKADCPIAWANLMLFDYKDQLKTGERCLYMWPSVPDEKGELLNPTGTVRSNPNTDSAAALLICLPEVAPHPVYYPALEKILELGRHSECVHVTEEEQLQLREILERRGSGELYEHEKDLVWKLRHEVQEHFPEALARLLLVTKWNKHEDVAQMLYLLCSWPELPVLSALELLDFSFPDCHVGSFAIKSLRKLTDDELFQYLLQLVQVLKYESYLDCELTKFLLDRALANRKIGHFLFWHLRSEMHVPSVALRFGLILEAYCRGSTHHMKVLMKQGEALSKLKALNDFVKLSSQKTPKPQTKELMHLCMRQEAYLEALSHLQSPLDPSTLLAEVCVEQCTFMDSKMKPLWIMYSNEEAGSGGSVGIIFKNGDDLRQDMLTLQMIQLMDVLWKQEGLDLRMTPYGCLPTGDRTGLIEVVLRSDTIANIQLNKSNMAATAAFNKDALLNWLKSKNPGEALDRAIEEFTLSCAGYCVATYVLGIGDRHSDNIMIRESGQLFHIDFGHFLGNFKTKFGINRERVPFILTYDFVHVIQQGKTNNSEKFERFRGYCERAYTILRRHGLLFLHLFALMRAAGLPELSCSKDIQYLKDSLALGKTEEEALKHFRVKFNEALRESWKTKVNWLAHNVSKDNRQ
Sequence of PI3K (p110δ/p85α) (P27986 whole entry partner): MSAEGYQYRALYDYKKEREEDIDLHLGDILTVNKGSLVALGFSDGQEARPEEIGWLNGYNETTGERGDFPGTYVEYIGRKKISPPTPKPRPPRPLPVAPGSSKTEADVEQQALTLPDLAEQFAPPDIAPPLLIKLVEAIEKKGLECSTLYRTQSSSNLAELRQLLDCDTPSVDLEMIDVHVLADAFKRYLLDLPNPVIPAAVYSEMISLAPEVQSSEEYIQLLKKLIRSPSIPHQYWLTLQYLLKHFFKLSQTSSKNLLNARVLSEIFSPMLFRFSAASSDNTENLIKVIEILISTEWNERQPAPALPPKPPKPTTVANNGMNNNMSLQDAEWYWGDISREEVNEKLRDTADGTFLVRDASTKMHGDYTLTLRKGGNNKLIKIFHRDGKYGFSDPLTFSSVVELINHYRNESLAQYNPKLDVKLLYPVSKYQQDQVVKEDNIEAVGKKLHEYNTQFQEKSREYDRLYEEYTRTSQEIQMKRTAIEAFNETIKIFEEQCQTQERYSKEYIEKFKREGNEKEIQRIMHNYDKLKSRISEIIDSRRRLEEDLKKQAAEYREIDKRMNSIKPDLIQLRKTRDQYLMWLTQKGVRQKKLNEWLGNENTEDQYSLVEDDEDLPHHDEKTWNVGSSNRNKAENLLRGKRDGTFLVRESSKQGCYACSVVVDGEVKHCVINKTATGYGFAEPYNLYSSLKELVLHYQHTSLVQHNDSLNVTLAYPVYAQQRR
Summary of the method: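 Recombinant p110δ/p85α with lipid substrate and serially diluted compound, 0.5 hr RT preincubation; ATP-started reaction ran 1 hr at RT. ADP formed read by ADP-Glo luminescence; IC50 from four-parameter logistic fit of residual activity.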

PI3K (p110α/p85α) = PI3K (p110α/p85α) (Homo sapiens, UniProt P42336); test: PI3Kα assay (ADP-Glo Kinase Assay); type: biochemical; details: recombinant enzyme; IC50 (nM) or max inhibition (%) at 0.5 μM
Sequence of PI3K (p110α/p85α) (P42336 whole entry): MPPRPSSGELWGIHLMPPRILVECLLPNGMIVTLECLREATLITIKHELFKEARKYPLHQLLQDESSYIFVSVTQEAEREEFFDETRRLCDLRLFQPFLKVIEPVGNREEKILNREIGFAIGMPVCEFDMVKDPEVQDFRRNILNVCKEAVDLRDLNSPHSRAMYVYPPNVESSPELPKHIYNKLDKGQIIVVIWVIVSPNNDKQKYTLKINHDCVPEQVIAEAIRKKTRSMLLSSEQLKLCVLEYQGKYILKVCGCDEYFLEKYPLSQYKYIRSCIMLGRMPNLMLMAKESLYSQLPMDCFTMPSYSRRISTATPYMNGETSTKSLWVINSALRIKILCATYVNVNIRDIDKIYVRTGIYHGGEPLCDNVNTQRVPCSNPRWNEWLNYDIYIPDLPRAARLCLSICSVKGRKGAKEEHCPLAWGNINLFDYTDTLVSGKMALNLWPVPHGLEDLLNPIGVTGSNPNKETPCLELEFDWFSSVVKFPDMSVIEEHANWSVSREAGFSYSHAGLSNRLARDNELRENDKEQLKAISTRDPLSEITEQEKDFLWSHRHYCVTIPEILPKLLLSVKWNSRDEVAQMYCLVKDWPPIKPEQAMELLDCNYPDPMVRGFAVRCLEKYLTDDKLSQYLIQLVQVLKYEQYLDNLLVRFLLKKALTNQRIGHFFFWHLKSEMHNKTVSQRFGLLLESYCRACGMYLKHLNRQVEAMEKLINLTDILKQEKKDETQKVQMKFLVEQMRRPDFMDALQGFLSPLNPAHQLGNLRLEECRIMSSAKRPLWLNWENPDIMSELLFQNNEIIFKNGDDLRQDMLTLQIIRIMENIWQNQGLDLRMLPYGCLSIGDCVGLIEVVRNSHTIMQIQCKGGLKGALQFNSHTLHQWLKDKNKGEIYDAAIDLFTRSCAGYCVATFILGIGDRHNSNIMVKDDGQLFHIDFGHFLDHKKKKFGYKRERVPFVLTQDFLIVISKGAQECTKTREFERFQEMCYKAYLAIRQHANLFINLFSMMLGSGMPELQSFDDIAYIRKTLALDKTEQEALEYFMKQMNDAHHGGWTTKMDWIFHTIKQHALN
Sequence of PI3K (p110α/p85α) (P27986 whole entry partner): as the sequence (P27986 whole entry partner) above

PI3K (p110β/p85α) = PI3K (p110β/p85α) (Homo sapiens, UniProt P42338); test: PI3Kβ assay (ADP-Glo Kinase Assay); type: biochemical; details: read-out: Enzyme activity IC50 PI3Kβ
Sequence of PI3K (p110β/p85α) (P42338 whole entry): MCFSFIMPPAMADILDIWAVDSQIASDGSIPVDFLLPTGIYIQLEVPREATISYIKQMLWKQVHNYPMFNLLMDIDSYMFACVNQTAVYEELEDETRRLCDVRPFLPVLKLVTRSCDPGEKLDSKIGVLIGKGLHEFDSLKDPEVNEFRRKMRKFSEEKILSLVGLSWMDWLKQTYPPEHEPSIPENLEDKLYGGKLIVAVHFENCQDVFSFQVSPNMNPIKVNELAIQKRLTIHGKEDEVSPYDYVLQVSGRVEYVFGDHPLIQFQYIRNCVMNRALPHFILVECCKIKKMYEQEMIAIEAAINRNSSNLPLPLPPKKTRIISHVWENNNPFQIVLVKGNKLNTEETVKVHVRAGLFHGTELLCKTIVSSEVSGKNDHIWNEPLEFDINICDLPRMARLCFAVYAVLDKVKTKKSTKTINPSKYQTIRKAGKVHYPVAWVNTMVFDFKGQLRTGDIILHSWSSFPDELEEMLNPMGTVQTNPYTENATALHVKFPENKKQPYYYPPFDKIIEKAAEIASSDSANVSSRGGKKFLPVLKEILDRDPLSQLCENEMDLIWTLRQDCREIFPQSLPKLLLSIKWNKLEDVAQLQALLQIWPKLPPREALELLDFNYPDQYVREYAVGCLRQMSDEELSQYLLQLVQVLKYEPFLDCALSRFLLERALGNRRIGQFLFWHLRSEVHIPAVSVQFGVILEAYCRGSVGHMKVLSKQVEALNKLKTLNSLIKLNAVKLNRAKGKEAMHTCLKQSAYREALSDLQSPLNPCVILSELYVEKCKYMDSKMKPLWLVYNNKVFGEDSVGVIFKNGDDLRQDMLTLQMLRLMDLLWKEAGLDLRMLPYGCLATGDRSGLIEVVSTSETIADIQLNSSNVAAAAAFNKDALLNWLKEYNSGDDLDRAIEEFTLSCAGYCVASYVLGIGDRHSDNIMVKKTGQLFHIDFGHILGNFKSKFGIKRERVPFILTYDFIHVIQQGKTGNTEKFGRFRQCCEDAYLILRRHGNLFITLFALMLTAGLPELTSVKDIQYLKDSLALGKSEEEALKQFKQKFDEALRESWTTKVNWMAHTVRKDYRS
Sequence of PI3K (p110β/p85α) (P27986 whole entry partner): as the sequence (P27986 whole entry partner) above

SMILES	IC50 (PI3K (p110γ))	IC50 (PI3K (p110δ/p85α))	IC50 (PI3K (p110α/p85α))	IC50 (PI3K (p110β/p85α))	also measured
Cc1nc([C@@H](C)c2cc(Cl)c(F)c(C(=O)NCCN3CCN(C)CC3)c2OC(C)C)n2ccnc(N)c12 [Compound 73, (S)-3-(1-(8-amino-1-methylimidazo[1,5-a]pyrazin-3-yl)ethyl)-5-chloro-6-fluoro-2-isopropoxy-N-(2-(4-methylpiperazin-1-yl)ethyl)benzamide]	9500 nM	2.8 nM	14000 nM	14 µM	AUC(0-inf) ([1]; 1 mg/kg, IV 1 mpk): 194 ng·h/mL; clearance ([1]; 1 mg/kg, IV 1 mpk): 86.6 mL/min/kg; half-life ([1]; 1 mg/kg, IV 1 mpk): 8.2 h; Vd ([1]; 1 mg/kg, IV 1 mpk): 59.4 L/kg; AUC(0-inf) ([1]; 10 mg/kg, PO 10 mpk): 918 ng·h/mL; Cmax ([1]; 10 mg/kg, PO 10 mpk): 220 ng/mL; Tmax ([1]; 10 mg/kg, PO 10 mpk): 1.5 h; half-life ([1]; 10 mg/kg, PO 10 mpk): 5.6 h; bioavailability ([1]; 10 mg·kg^−1, PO 10 mpk vs IV 1 mpk): 34.9%; half-life (in words) ([1]; in vivo): unexpected long half-life
Cc1nc([C@@H](C)c2cc(Cl)c(F)c(C(=O)N[C@H]3CC[C@H](O)CC3)c2OC(C)C)n2ccnc(N)c12 [Compound 60, 3((S)-1-(8-amino-1-methylimidazo[1,5-a]pyrazin-3-yl)ethyl)-5-chloro-6-fluoro-N-((trans)-4-hydroxycyclohexyl)-2-isopropoxybenzamide]	6300 nM	0.95 nM	11000 nM	35 µM	AUC(0-inf) ([1]; 1 mg/kg, IV 1 mpk): 218 ng·h/mL; clearance ([1]; 1 mg/kg, IV 1 mpk): 76.6 mL/min/kg; half-life ([1]; 1 mg/kg, IV 1 mpk): 0.6 h; Vd ([1]; 1 mg/kg, IV 1 mpk): 3.3 L/kg; AUC(0-inf) ([1]; 5 mg/kg, PO 5 mpk): 159 ng·h/mL; Cmax ([1]; 5 mg/kg, PO 5 mpk): 133 ng/mL; Tmax ([1]; 5 mg/kg, PO 5 mpk): 0.3 h; half-life ([1]; 5 mg/kg, PO 5 mpk): 2 h; bioavailability ([1]; 5 mg·kg^−1, PO 5 mpk vs IV 1 mpk): 14.6%
CO[C@H]1CCN(C(=O)c2c(F)c(Cl)cc([C@H](C)c3nc(C)c4c(N)nccn34)c2OC(C)C)C1 [Compound 70, (3-((S)-1-(8-amino-1-methylimidazo[1,5-a]pyrazin-3-yl)ethyl)-5-chloro-6-fluoro-2-isopropoxyphenyl)((S)-3-methoxypyrrolidin-1-yl)methanone]	6700 nM	1.9 nM	41000 nM	> 50 µM	
Cc1nc([C@@H](C)c2cc(Cl)c(F)c(C(=O)NCC3CCN(C)CC3)c2OC(C)C)n2ccnc(N)c12 [Compound 30, (S)-3-(1-(8-amino-1-methylimidazo[1,5-a]pyrazin-3-yl)ethyl)-5-chloro-6-fluoro-2-isopropoxy-N-((1-methylpiperidin-4-yl)methyl)benzamide]	7700 nM	0.97 nM	17000 nM	14 µM	

These reach a lower IC50 (PI3K (p110γ)). Values come first.

IC50 (PI3K (p110γ))	IC50 (PI3K (p110δ/p85α))	IC50 (PI3K (p110α/p85α))	IC50 (PI3K (p110β/p85α))	SMILES	also measured
6000 nM	1.3 nM	46000 nM	19 µM	Cc1nc([C@@H](C)c2cc(Cl)c(F)c(C(=O)NC[C@@H]3CCOC3)c2OC(C)C)n2ccnc(N)c12 [Compound 35, 3-((S)-1-(8-amino-1-methylimidazo[1,5-a]pyrazin-3-yl)ethyl)-5-chloro-6-fluoro-2-isopropoxy-N-4(((S)-tetrahydrofuran-3-yl)methyl)benzamide]	
5800 nM	1.6 nM	36000 nM	16 µM	Cc1nc([C@@H](C)c2cc(Cl)c(F)c(C(=O)NC[C@@H]3CCCO3)c2OC(C)C)n2ccnc(N)c12 [Compound 24, 3-((S)-1-(8-amino-1-methylimidazo[1,5-a]pyrazin-3-yl)ethyl)-5-chloro-6-fluoro-2-isopropoxy-N-(((S)-tetrahydrofuran-2-yl)methyl)benzamide]	
5500 nM	14 nM	> 50000 nM	> 50 µM	Cc1nc(C(C)c2cc(Cl)c(F)c(C(=O)NC3(C(=O)O)CC3)c2OC(C)C)n2ccnc(N)c12 (stereo not shown) [Compound 2, 1-(3(1-(8-amino-1-methylimidazo[1,5-a]pyrazin-3-yl)ethyl)-5-chloro-6-fluoro-2-isopropoxybenzamido)cyclopropane-1-carboxylic acid]	
4600 nM	1.7 nM	40000 nM	23 µM	Cc1nc([C@@H](C)c2cc(Cl)c(F)c(C(=O)N3CC4(CCOC4)C3)c2OC(C)C)n2ccnc(N)c12 [Compound 68, (S)-(3-(1-(8-amino-1-methylimidazo[1,5-a]pyrazin-3-yl)ethyl)-5-chloro-6-fluoro-2-isopropoxyphenyl)(6-oxa-2-azaspiro[3.4]octan-2-yl)methanone]	
4200 nM	1.1 nM	38000 nM	7.4 µM	Cc1nc([C@@H](C)c2cc(Cl)c(F)c(C(=O)N[C@H]3C[C@@H](O)C3)c2OC(C)C)n2ccnc(N)c12 [Compound 63, 3-((S)-1-(8-amino-1-methylimidazo[1,5-a]pyrazin-3-yl)ethyl)-5-chloro-6-fluoro-N-((cis)-3-hydroxycyclobutyl)-2-isopropoxybenzamide]	
